# In PMC6968685 (Journal of Enzyme Inhibition and Medicinal Chemistry, 2020):
# Counter-ions that a name gives are not always drawn.
row,Structure (SMILES),melting point [°C]
1,"CN1CCN(CCCNCc2ccc(-c3cc(-c4ccc(CNCCCN5CCN(C)CC5)cc4)c4ccccc4n3)cc2)CC1 (as salt: (cooh)2) [Compound 1e, 2,4-Bis{4-[(3–(4-methylpiperazin-1-yl)propyl)aminomethyl]phenyl}quinoline]",249 to 251
2,"COc1ccc2nc(-c3ccc(CNCCCN4CCN(C)CC4)cc3)nc(-c3ccc(CNCCCN4CCN(C)CC4)cc3)c2c1 (as salt: (cooh)2) [Compound 3k, 6-Methoxy-2,4-bis{4-[(3–(4-methylpiperazin-1-yl)propyl)aminomethyl]phenyl}quinazoline]",227 to 229
3,"COc1ccc2c(-c3ccc(CNCCN4CCN(C)CC4)cc3)nc(-c3ccc(CNCCN4CCN(C)CC4)cc3)nc2c1 (as salt: (cooh)2) [Compound 3r, 7-Methoxy-2,4-bis{4-[(2–(4-methylpiperazin-1-yl)ethyl)aminomethyl]phenyl}quinazoline]",238 to 240
4,"CN(C)CCCCNCc1ccc(-c2cc3ccccc3c(-c3ccc(CNCCCCN(C)C)cc3)n2)cc1 (as salt: (cooh)2) [Compound 2a, 1,3-Bis{4-[(4-dimethylaminobutyl)aminomethyl]phenyl}isoquinoline]",184 to 186
5,"c1ccc2c(-c3ccc(CNCCCN4CCOCC4)cc3)nc(-c3ccc(CNCCCN4CCOCC4)cc3)nc2c1 (as salt: (cooh)2) [Compound 3f, 2,4-Bis{4-[(3-morpholinopropyl)aminomethyl]phenyl}quinazoline]",183 to 185
6,"COc1ccc2c(-c3ccc(CNCCCN(C)C)cc3)cc(-c3ccc(CNCCCN(C)C)cc3)nc2c1 (as salt: (cooh)2) [Compound 1n, 7-Methoxy-2,4-bis{4-[(3-dimethylaminopropyl)aminomethyl]phenyl}quinoline]",237 to 239
7,"COc1ccc2nc(-c3ccc(CNCCCCN(C)C)cc3)cc(-c3ccc(CNCCCCN(C)C)cc3)c2c1 (as salt: (cooh)2) [Compound 1i, 6-Methoxy-2,4-bis{4-[(4-dimethylaminobutyl)aminomethyl]phenyl}quinoline]",227 to 229
8,"COc1ccc2nc(-c3ccc(CNCCN(C)C)cc3)nc(-c3ccc(CNCCN(C)C)cc3)c2c1 (as salt: (cooh)2) [Compound 3j, 6-Methoxy-2,4-bis{4-[(2-dimethylaminoethyl)aminomethyl]phenyl}quinazoline]",233 to 235
9,"CN1CCN(CCCNCc2ccc(-c3nc(-c4ccc(CNCCCN5CCN(C)CC5)cc4)c4ccccc4n3)cc2)CC1 (as salt: (cooh)2) [Compound 3e, 2,4-Bis{4-[(3–(4-methylpiperazin-1-yl)propyl)aminomethyl]phenyl}quinazoline]",229 to 231
10,"c1cc(CNCCN2CCOCC2)cc(-c2cc(-c3cccc(CNCCN4CCOCC4)c3)c3ccccc3n2)c1 (as salt: (cooh)2) [Compound 1t, 2,4-Bis{3-[(2-morpholinoethyl)aminomethyl]phenyl}quinoline]",225 to 227
11,"CN(C)CCCNCc1ccc(-c2nc(-c3ccc(CNCCCN(C)C)cc3)c3ccccc3n2)cc1 (as salt: (cooh)2) [Compound 3b, 2,4-Bis{4-[(3-dimethylaminopropyl)aminomethyl]phenyl}quinazoline]",203 to 205
12,"COc1ccc2nc(-c3ccc(CNCCN4CCN(C)CC4)cc3)nc(-c3ccc(CNCCN4CCN(C)CC4)cc3)c2c1 (as salt: (cooh)2) [Compound 3l, 6-Methoxy-2,4-bis{4-[(2–(4-methylpiperazin-1-yl)ethyl)aminomethyl]phenyl}quinazoline]",229 to 231
13,"CN(C)CCNCc1ccc(-c2cc(-c3ccc(CNCCN(C)C)cc3)c3ccccc3n2)cc1 (as salt: (cooh)2) [Compound 1c, 2,4-Bis{4-[(2-dimethylaminoethyl)aminomethyl]phenyl}quinoline]",229 to 231
14,"c1cc(CNCCCN2CCOCC2)cc(-c2nc(-c3cccc(CNCCCN4CCOCC4)c3)c3ccccc3n2)c1 (as salt: (cooh)2) [Compound 3u, 2,4-Bis{3-[(3-morpholinopropyl)aminomethyl]phenyl}quinazoline]",186 to 188
15,"COc1ccc2c(-c3ccc(CNCCCCN(C)C)cc3)nc(-c3ccc(CNCCCCN(C)C)cc3)nc2c1 (as salt: (cooh)2) [Compound 3m, 7-Methoxy-2,4-bis{4-[(4-dimethylaminobutyl)aminomethyl]phenyl}quinazoline]",216 to 218
16,"c1ccc2c(-c3ccc(CNCCN4CCOCC4)cc3)cc(-c3ccc(CNCCN4CCOCC4)cc3)nc2c1 (as salt: (cooh)2) [Compound 1h, 2,4-Bis{4-[(2-morpholinoethyl)aminomethyl]phenyl}quinoline]",235 to 237
17,"COc1ccc2c(-c3ccc(CNCCCCN4CCN(C)CC4)cc3)nc(-c3ccc(CNCCCCN4CCN(C)CC4)cc3)cc2c1 (as salt: (cooh)2) [Compound 2k, 6-Methoxy-1,3-bis{4-[(4–(4-methylpiperazin-1-yl)butyl)aminomethyl]phenyl}isoquinoline]",216 to 218

row,Structure (SMILES),melting point [°C]
1,"CN(C)CCNCc1ccc(-c2nc(-c3ccc(CNCCN(C)C)cc3)c3ccccc3n2)cc1 (as salt: (cooh)2) [Compound 3c, 2,4-Bis{4-[(2-dimethylaminoethyl)aminomethyl]phenyl}quinazoline]",203 to 205
2,"COc1ccc2nc(-c3ccc(CNCCCCN(C)C)cc3)nc(-c3ccc(CNCCCCN(C)C)cc3)c2c1 (as salt: (cooh)2) [Compound 3h, 6-Methoxy-2,4-bis{4-[(4-dimethylaminobutyl)aminomethyl]phenyl}quinazoline]",156 to 158
3,"COc1ccc2c(-c3ccc(CNCCCN4CCN(C)CC4)cc3)nc(-c3ccc(CNCCCN4CCN(C)CC4)cc3)nc2c1 (as salt: (cooh)2) [Compound 3q, 7-Methoxy-2,4-bis{4-[(3–(4-methylpiperazin-1-yl)propyl)aminomethyl]phenyl}quinazoline]",229 to 231
4,"CN1CCN(CCCCNCc2ccc(-c3nc(-c4ccc(CNCCCCN5CCN(C)CC5)cc4)c4ccccc4n3)cc2)CC1 (as salt: (cooh)2) [Compound 3d, 2,4-Bis{4-[(4–(4-methylpiperazin-1-yl)butyl)aminomethyl]phenyl}quinazoline]",223 to 225
5,"COc1ccc2c(-c3ccc(CNCCCN4CCN(C)CC4)cc3)cc(-c3ccc(CNCCCN4CCN(C)CC4)cc3)nc2c1 (as salt: (cooh)2) [Compound 1p, 7-Methoxy-2,4-bis{4-[(3–(4-methylpiperazin-1-yl)propyl)aminomethyl]phenyl}quinoline]",245 to 247
6,"COc1ccc2c(-c3ccc(CNCCCN(C)C)cc3)nc(-c3ccc(CNCCCN(C)C)cc3)cc2c1 (as salt: (cooh)2) [Compound 2j, 6-Methoxy-1,3-bis{4-[(3-dimethylaminopropyl)aminomethyl]phenyl}isoquinoline]",171 to 173
7,"CN1CCN(CCCNCc2ccc(-c3cc4ccccc4c(-c4ccc(CNCCCN5CCN(C)CC5)cc4)n3)cc2)CC1 (as salt: (cooh)2) [Compound 2d, 1,3-Bis{4-[(3–(4-methylpiperazin-1-yl)propyl)aminomethyl]phenyl}isoquinoline]",217 to 219
8,"CN(C)CCCNCc1cccc(-c2nc(-c3cccc(CNCCCN(C)C)c3)c3ccccc3n2)c1 (as salt: (cooh)2) [Compound 3s, 2,4-Bis{3-[(3-dimethylaminopropyl)aminomethyl]phenyl}quinazoline]",> 260
9,"CN(C)CCCCNCc1ccc(-c2nc(-c3ccc(CNCCCCN(C)C)cc3)c3ccccc3n2)cc1 (as salt: (cooh)2) [Compound 3a, 2,4-Bis{4-[(4-dimethylaminobutyl)aminomethyl]phenyl}quinazoline]",153 to 155
10,"c1ccc2c(-c3ccc(CNCCCN4CCOCC4)cc3)cc(-c3ccc(CNCCCN4CCOCC4)cc3)nc2c1 (as salt: (cooh)2) [Compound 1g, 2,4-Bis{4-[(3-morpholinopropyl)aminomethyl]phenyl}quinoline]",202 to 204
11,"COc1ccc2cc(-c3ccc(CNCCCCN4CCN(C)CC4)cc3)nc(-c3ccc(CNCCCCN4CCN(C)CC4)cc3)c2c1 (as salt: (cooh)2) [Compound 2g, 7-Methoxy-1,3-bis{4-[(4–(4-methylpiperazin-1-yl)butyl)aminomethyl]phenyl}isoquinoline]",172 to 174
12,"COc1ccc2c(-c3ccc(CNCCCCN(C)C)cc3)cc(-c3ccc(CNCCCCN(C)C)cc3)nc2c1 (as salt: (cooh)2) [Compound 1m, 7-Methoxy-2,4-bis{4-[(4-dimethylaminobutyl)aminomethyl]phenyl}quinoline]",208 to 210
13,"CN1CCN(CCNCc2ccc(-c3cc(-c4ccc(CNCCN5CCN(C)CC5)cc4)c4ccccc4n3)cc2)CC1 (as salt: (cooh)2) [Compound 1f, 2,4-Bis{4-[(2–(4-methylpiperazin-1-yl)ethyl)aminomethyl]phenyl}quinoline]",240 to 242
14,"c1ccc2c(-c3ccc(CNCCN4CCOCC4)cc3)nc(-c3ccc(CNCCN4CCOCC4)cc3)nc2c1 (as salt: (cooh)2) [Compound 3g, 2,4-Bis{4-[(2-morpholinoethyl)aminomethyl]phenyl}quinazoline]",195 to 197
15,"COc1ccc2c(-c3ccc(CNCCCN(C)C)cc3)nc(-c3ccc(CNCCCN(C)C)cc3)nc2c1 (as salt: (cooh)2) [Compound 3n, 7-Methoxy-2,4-bis{4-[(3-dimethylaminopropyl)aminomethyl]phenyl}quinazoline]",223 to 225
16,"c1cc(CNCCCN2CCOCC2)cc(-c2cc(-c3cccc(CNCCCN4CCOCC4)c3)c3ccccc3n2)c1 (as salt: (cooh)2) [Compound 1s, 2,4-Bis{3-[(3-morpholinopropyl)aminomethyl]phenyl}quinoline]",221 to 223
17,"CN1CCN(CCCNCc2cccc(-c3cc(-c4cccc(CNCCCN5CCN(C)CC5)c4)c4ccccc4n3)c2)CC1 (as salt: (cooh)2) [Compound 1r, 2,4-Bis{3-[(3–(4-methylpiperazin-1-yl)propyl)aminomethyl]phenyl}quinoline]",237 to 239
